Source: PubChem BioAssay AID330 (DTP/NCI, 2004)
Where “and” joins values, the source holds several entries; their conditions need not be identical. Equal entries are not always repeated. Toxic doses and inconclusive results are not listed.

System: P388 leukemia ip, CD2F1 mice, survival T/C
Test: NCI In Vivo Anticancer Drug Screen. Data for tumor model P388 Leukemia (intraperitoneal) in CD2F1 (CDF1) mice
Details: endpoint: median survival time, higher = longer survival
How it was run: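 Mice carrying the transplanted tumor received test compound or vehicle. Survival was recorded in each group, and the value is the treated-group measurement divided by that of the vehicle-treated control group.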

[1] = dose: 50.0 mg/kg/injection, schedule: Q01DX005 (ip), vehicle: saline with Tween-80
[2] = dose: 100.0 mg/kg/injection, schedule: Q01DX005 (ip), vehicle: saline with Tween-80
[3] = dose: 50.0 mg/kg/injection, schedule: Q01DX009 (ip), vehicle: saline with Tween-80
[4] = dose: 100.0 mg/kg/injection, schedule: Q01DX009 (ip), vehicle: saline with Tween-80
[5] = dose: 200.0 mg/kg/injection, schedule: Q01DX009 (ip), vehicle: saline with Tween-80
[6] = dose: 15.0 mg/kg/injection, schedule: Q01DX005 (ip), vehicle: saline with Tween-80

CC(C)C1(C(=O)NNC(=O)CCCc2ccc(N(CCCl)CCCl)cc2)OC2(O)CCCCCN2C1=O (stereo not given)
T/C (dose: 6.25 mg/kg/injection, schedule: Q04DX003 (ip), vehicle: Klucel (hydroxypropylcellulose) (HPC)): 109 % of control
T/C (dose: 12.5 mg/kg/injection, schedule: Q04DX003 (ip), vehicle: Klucel (hydroxypropylcellulose) (HPC)): 121 % of control
T/C (dose: 100.0 mg/kg/injection, schedule: Q04DX003 (ip), vehicle: Klucel (hydroxypropylcellulose) (HPC)): 184 % of control

Cc1ccc(NCCCC2CCCN3CCCCC23)c2c(=O)c3cc(O)ccc3sc12 (stereo not given)
T/C (dose: 25.0 mg/kg/injection, schedule: Q01DX001 (ip), vehicle: saline with Tween-80): 99 % of control
T/C (dose: 50.0 mg/kg/injection, schedule: Q01DX001 (ip), vehicle: saline with Tween-80): 98 % of control
T/C (dose: 100.0 mg/kg/injection, schedule: Q01DX001 (ip), vehicle: saline with Tween-80): 100 % of control

Cn1c(=O)c2c(c3ccccc31)Oc1oc3ccc4ccccc4c3c(=O)c1C2
T/C (dose: 12.5 mg/kg/injection, schedule: Q01DX009 (ip), vehicle: saline with Tween-80): 92 % of control
T/C (dose: 25.0 mg/kg/injection, schedule: Q01DX009 (ip), vehicle: saline with Tween-80): 90 % of control

O=C(c1ccccc1)c1ccccc1-c1nc2ccccc2c(=O)o1
T/C (dose: 50.0 mg/kg/injection, schedule: Q01DX009 (ip), vehicle: Klucel (hydroxypropylcellulose) (HPC)): 100 % of control
T/C (dose: 100.0 mg/kg/injection, schedule: Q01DX009 (ip), vehicle: Klucel (hydroxypropylcellulose) (HPC)): 95 % of control
T/C (dose: 200.0 mg/kg/injection, schedule: Q01DX009 (ip), vehicle: Klucel (hydroxypropylcellulose) (HPC)): 109 % of control

CCC12C=CCN3CC[C@@]4(c5cc([C@@]6(C(=O)OC)C[C@@H]7CN(CCc8c6[nH]c6ccccc86)C[C@](O)(CC)C7)c(OC)cc5N(C)[C@H]4[C@@](O)(C(=O)NCCCCCCCCCCCC(=O)O)[C@@H]1O)C32 (stereo not given in full)
T/C (dose: 11.25 mg/kg/injection, schedule: Q01DX001 (ip), vehicle: other): 164 % of control
T/C (dose: 11.25 mg/kg/injection, schedule: Q01DX001 (ip), vehicle: saline with Tween-80): 153 % of control
T/C (dose: 11.25 mg/kg/injection, schedule: Q01DX001 (ip), vehicle: saline): 189 % of control
T/C (dose: 22.5 mg/kg/injection, schedule: Q01DX001 (ip), vehicle: saline with Tween-80): 164 % of control
T/C (dose: 45.0 mg/kg/injection, schedule: Q01DX001 (ip), vehicle: saline with Tween-80): 182 % of control

COc1ccc2c(c1O)-c1c(O)c(OC)cc3c1[C@H](C2)[N+](C)(C)CC3
T/C (dose: 12.5 mg/kg/injection, schedule: Q04DX003 (ip), vehicle: saline): 109 % of control
T/C (dose: 25.0 mg/kg/injection, schedule: Q04DX003 (ip), vehicle: saline): 114 % of control
T/C (dose: 50.0 mg/kg/injection, schedule: Q04DX003 (ip), vehicle: saline): 98 % of control and 109 % of control
T/C (dose: 100.0 mg/kg/injection, schedule: Q04DX003 (ip), vehicle: saline): 113 % of control

CC(C)CC(NC(=O)C(Cc1cnc[nH]1)N(C(=O)OCc1ccccc1)C(=O)OCc1ccccc1)C(=O)NN (stereo not given)
T/C [1]: 101 % of control
T/C [2]: 106 % of control
T/C (dose: 200.0 mg/kg/injection, schedule: Q01DX005 (ip), vehicle: saline with Tween-80): 106 % of control

ClCCN(CCCl)c1ccc2c3c(cccc13)-c1ccccc1-2
T/C (dose: 25.0 mg/kg/injection, schedule: Q04DX003 (ip), vehicle: saline with Tween-80): 104 % of control
T/C [3]: 154 % of control
T/C [4]: 186 % of control
T/C (dose: 132.0 mg/kg/injection, schedule: Q04DX003 (ip), vehicle: saline with Tween-80): 159 % of control
T/C [5]: 86 % of control
T/C (dose: 200.0 mg/kg/injection, schedule: Q04DX003 (ip), vehicle: saline with Tween-80): 177 % of control and 212 % of control
T/C (dose: 300.0 mg/kg/injection, schedule: Q04DX003 (ip), vehicle: saline with Tween-80): 177 % of control

CC1(O)c2ccccc2C(C)(O)c2c1ccc1ccccc21 (stereo not given)
T/C [1]: 95 % of control
T/C [2]: 87 % of control

Cc1cc2[nH]c3c(C#N)c(OC(=O)N(C)C)c(C)c(=O)n3c2cc1C
T/C [6]: 100 % of control
T/C (dose: 30.0 mg/kg/injection, schedule: Q01DX005 (ip), vehicle: saline with Tween-80): 108 % of control
T/C (dose: 60.0 mg/kg/injection, schedule: Q01DX005 (ip), vehicle: saline with Tween-80): 100 % of control and 93 % of control

c1ccc2c(c1)CN1Cc3ccccc3C2C1
T/C [3]: 99 % of control
T/C [4]: 93 % of control
T/C [5]: 91 % of control

CC1(C)CC(=O)[C@H]2SCC(=O)CC21 (stereo not given in full)
T/C [1]: 86 % of control
T/C [2]: 99 % of control

Cc1cc2c(cc1C)n1c(=O)n(C)c(=O)c(C#N)c1n2C
T/C (dose: 7.5 mg/kg/injection, schedule: Q01DX005 (ip), vehicle: saline with Tween-80): 100 % of control
T/C [6]: 101 % of control

COC1CC(C)(O)Cc2cc3c(c(O)c21)C(=O)c1c(O)cc2c(c1C3=O)OC1OC2(C)C(O)C(N(C)C)C1O (stereo not given)
T/C (dose: 6.25 mg/kg/injection, schedule: Q01DX009 (ip), vehicle: other): 158 % of control
T/C (dose: 12.5 mg/kg/injection, schedule: Q01DX009 (ip), vehicle: other): 176 % of control
T/C (dose: 25.0 mg/kg/injection, schedule: Q01DX009 (ip), vehicle: other): 168 % of control
